Several values for one entry are separate records, joined by “and”; a condition that tells them apart may be missing. Identical values can stand only once.
What was measured:
[1] = tested on: IL-6; assay: IL-6 expression in infected supernatant of DENV-infected Meg-01 cells, enzyme immunoassay; format: cell-based, human; settings: after dengue virus infection, extract at IC10 concentration
Protocol: (§1) 2×10^4 Meg-01 cells are lysed in a RPMI culture medium containing 10% fetal bovine serum for in vitro infection with dengue virus. The infection condition is 1 MOI, a total volume of virus sap and cell sap is 2 ml, and the selected virus is dengue virus type 2 (DENV-2), strain 16681. The infection mixture is cultured in a 37° C. incubator for 2 hours, and the tube is shaken once every 30 minutes to increase a chance of virus contacting the cells. After 2 hours, centrifuge (600 rpm, 6 minutes) with a centrifuge to remove the virus that is not in contact with the cells, and re-lyse the cells with an appropriate amount of a cell culture medium, and then divide the cells into a cell culture medium (2 ml) or into a cell culture medium additional added with the Antrodia camphorata extract ZAC and the Antrodia camphorata extract YS-1, the centrifuge tube is finally placed in a 37° C. incubator, and the infection supernatant is collected at specific infection time points (time points: 2 hours, and 1, 2, 3, 5, 7 days after infection). The infection mixture is taken out at the specific time points, centrifuged with a centrifuge (600 rpm, 6 minutes), the infection supernatant is separated, and a viral titer is assayed by viral plaque assay and an expression of cytokines is assayed by enzyme combined with immunosorbent assay. […]

[2] = tested on: dengue virus type 2 (DENV-2), strain 16681; assay: Dengue virus infection of Meg-01 cells, viral titer by plaque assay; format: cell-based; settings: for dengue viral titer versus infected control: p value<0.0001
Protocol: 2×10^4 Meg-01 cells are lysed in a RPMI culture medium containing 10% fetal bovine serum for in vitro infection with dengue virus. The infection condition is 1 MOI, a total volume of virus sap and cell sap is 2 ml, and the selected virus is dengue virus type 2 (DENV-2), strain 16681. The infection mixture is cultured in a 37° C. incubator for 2 hours, and the tube is shaken once every 30 minutes to increase a chance of virus contacting the cells. After 2 hours, centrifuge (600 rpm, 6 minutes) with a centrifuge to remove the virus that is not in contact with the cells, and re-lyse the cells with an appropriate amount of a cell culture medium, and then divide the cells into a cell culture medium (2 ml) or into a cell culture medium additional added with the Antrodia camphorata extract ZAC and the Antrodia camphorata extract YS-1, the centrifuge tube is finally placed in a 37° C. incubator, and the infection supernatant is collected at specific infection time points (time points: 2 hours, and 1, 2, 3, 5, 7 days after infection). The infection mixture is taken out at the specific time points, centrifuged with a centrifuge (600 rpm, 6 minutes), the infection supernatant is separated, and a viral titer is assayed by viral plaque assay and an expression of cytokines is assayed by enzyme combined with immunosorbent assay.
7×10^5/well […] kidney epithelial cells (BHK cells) are lysed in 1.5 ml of a DMEM culture medium containing 5% fetal bovine serum and seeded on a 6-well plate. The virus solution to be tested will be serially diluted first. The preparation method is to add 100 μL of unknown virus solution to 900 μL of a DMEM culture medium containing 2% fetal bovine serum to achieve a 10-fold dilution. After the cells to be seeded are attached onto the plate, remove the culture medium, add 400 μL of the virus solution to be tested, and culture in a 37° C. incubator for 2 hours. The plate needs to be shaken once every 15 minutes so that the infection solution can evenly cover the cells. After two hours, the infection solution is removed, methylcellulose is added to limit a range of virus movement, and the plate is placed back into the 37° C. incubator to culture for 7 days. […] Finally, the dye is washed off with clean water, and a number of plaques formed is counted to calculate the viral titer. […]
2 hours after the […] cells are infected by dengue virus, centrifuge to remove excessive virus, and the cells are re-lysed in a cell culture medium containing the Antrodia camphorata extract ZAC (91.68 μg/mL) or the Antrodia camphorata extract YS-1 (176.51 μg/mL), respectively. […] Plaque assay will be used on the collected infected supernatant (n=3) to quantify a viral titer.

[3] = tested on: IL-8; assay: IL-8 expression in infected supernatant of DENV-infected Meg-01 cells, enzyme immunoassay; format: cell-based, human; settings: after dengue virus infection, extract at IC10 concentration
Protocol: as §1

[4] = tested on: Meg-01 cells; assay: Cell viability assay (WST-1) of Meg-01 cells; format: cell-based, human; settings: for IC10 (concentration that produces 10% inhibition of cell viability): Meg-01 cells, co-culture 7 days, WST-1, OD 440 nm; for effect on cell viability: 400 μg/mL; for effect on cell viability / toxicity on Meg-01 cells (cell viability): 7 days; for toxicity on Meg-01 cells (cell viability): low concentrations 25 μg/mL, 50 μg/mL
Protocol: Meg-01 cell strains (CRL2021, ATCC, human myelo-megakaryocyte leukemia cell strains) are cultured in a RPMI medium with 10% fetal bovine serum, when a cell density reaches 80-90%, the cell sap can be withdrawn into a centrifuge tube, after being centrifuged in a centrifuge (600 rpm, 6 minutes), then remove the supernatant, and re-lyse the centrifuged cells with an appropriate amount of a culture medium for subculture or subsequent experiments.
1×10^3 Meg-01 cells are lysed in 100 μL of 10% fetal bovine serum in a RPMI culture medium and seeded into a 96-well U-shaped plate. Different concentrations of the Antrodia camphorata extract ZAC and the Antrodia camphorata extract YS-1 are added to the cells for co-culture at 37° C. for 7 days, while the cells added with dimethyl sulfoxide (DMSO) are used as an experimental control group.
Please refer to FIG. 1. FIG. 1 is a graph of viability of Meg-01 cells after adding the Antrodia camphorata extract according to one embodiment of the invention. The Meg-01 cells are co-cultured with different concentrations of the Antrodia camphorata extract ZAC or the Antrodia camphorata extract YS-1 respectively, and the group added with DMSO is used as an experimental control group. After the cells are co-cultured with the Antrodia camphorata extract for 7 days, WST-1 assay reagent is added to the cells and OD 440 nm value is collected to assay a toxicity of the drug on the cells, the cell group without addition of the Antrodia camphorata extract is regarded as an experimental control group, and the cell groups added with different concentrations of the Antrodia camphorata extract are regarded as experimental groups.

[5] = tested on: IFN-α; assay: IFN-α expression in infected supernatant of DENV-infected Meg-01 cells, enzyme immunoassay; format: cell-based, human; settings: 5th and 7th days after infection, extract at IC10 concentration; day 5 P value 0.0021
Protocol: as §1

Structure (SMILES)	expression of cellular inflammatory factor IL-6 [1]	dengue viral titer versus infected control ([2]; 176.51 μg/mL added after infection)	inhibitory effect on dengue virus (viral titer) ([2]; high dose 176.51 μg/mL compared with low dose 25 μg/mL)	inhibitory effect on dengue virus (viral titer) ([2]; low dose 25 μg/mL)	expression of cellular inflammatory factor IL-8 [3]	IC10 (concentration that produces 10% inhibition of cell viability) [4]	effect on cell viability ([4]; higher concentrations 200 μg/mL)	toxicity on Meg-01 cells (cell viability) ([4]; 100 μg/mL)	amount of secretion of IFN-α versus infected control [5]	dengue viral titer versus infected control ([2]; 91.68 μg/mL added 2 hours after infection, late stages of infection (5th to 7th days))	effect on cell viability ([4]; higher concentrations 100 μg/mL, 200 μg/mL)	toxicity on Meg-01 cells (cell viability) [4]
COc1cc(C)c(OC)c2c1OCO2 [YS-1, 4,7-dimethoxy-5-methyl-1,3-benzodioxole]	effectively reducing an expression	significantly reducing the viral titer	better inhibitory effect on dengue virus	inhibitory effect on dengue virus	effectively reducing an expression	176.512 µg/mL and 176.51 µg/mL	slight effect on cell viability	generally not toxic	–	–	–	–
C=C(CC[C@@H](C)[C@H]1CC[C@H]2C3=C(C(=O)[C@H](O)[C@]12C)[C@@]1(C)CC[C@@H](O)[C@@H](C)[C@@H]1CC3=O)C(C)C(=O)O (stereo partly drawn) [ZAC, Zhankuic acid C]	effectively reducing an expression	–	–	–	effectively reducing an expression	91.675 µg/mL and 91.68 µg/mL	–	–	significantly higher	decreases significantly	slight effect on cell viability	generally has no toxicity

— patent US11883418B2, “Compound TSYI-ZAC for inhibiting dengue virus infection and medicinal use thereof” (Syi Biotechnology Co., Ltd., priority 2022, dated 2024)
